The values that follow come from patent US10517862B2, “Fused heterocyclic compound derivative and application thereof” (NHWA PHARMA. CORPORATION, priority 2015, dated 2019).

One may read the inhibition as the change of the read-out against control, counted positive when it falls.

Structures are written as SMILES. Where two headings read alike, the source gives them in different places.

One data set has as its target T1, 5HT2C receptor (Rattus norvegicus, UniProt P08909).
T1 construct: from tissue; host or cells: rat brain striatum
T1 sequence (P08909 33-460): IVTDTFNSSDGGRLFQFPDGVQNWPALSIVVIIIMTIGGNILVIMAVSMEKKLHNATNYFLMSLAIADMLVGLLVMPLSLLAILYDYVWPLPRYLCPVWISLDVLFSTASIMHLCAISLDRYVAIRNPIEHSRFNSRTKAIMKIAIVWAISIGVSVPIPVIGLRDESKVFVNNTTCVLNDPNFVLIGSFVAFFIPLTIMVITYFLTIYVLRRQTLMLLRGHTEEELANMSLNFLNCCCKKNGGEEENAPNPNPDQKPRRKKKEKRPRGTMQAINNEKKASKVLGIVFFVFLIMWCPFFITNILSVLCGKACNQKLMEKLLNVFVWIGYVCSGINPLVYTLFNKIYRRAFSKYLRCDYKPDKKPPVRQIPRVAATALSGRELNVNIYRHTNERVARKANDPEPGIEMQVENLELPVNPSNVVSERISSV
Put plainly: 5HT2C receptor binding assay ([3H]-mesulergine, rat striatum membrane). The settings on record: test compound final concentration 10^−5 M; [3H]-mesulergine; rat striatum membrane; read-out: 5HT2C Inhibition rate (%). How it is done:
Preparation of 5HT2C Membrane
Rats were decapitated on ice. […] Centrifugation was conducted.
(§1) Materials for the Receptor Binding Assay

In data set [1] the test system is mice of Kunming breed. The data set is described as follows: Apomorphine induced clambering assay of mice. The note with it: Mus musculus; mice, po; apomorphine 1 mg/kg sc 1 hour after administration; read-out: Apomorphine induced clambering (ED50, po, mg/kg). Type of data set: in vivo. How it is done:
Healthy mice of Kunming breed (KM) (male, with body weight of 18-22 g) were provided by Qinglongshan Animal Cultivation Center, Nanjing.
Apomorphine provided by Sigma Company was dissolved in 0.9% NaCl (containing 0.1% vitamin C) before use, and was freshly formulated before use.
Vitamin C, F20061113, was provided by Sinopharm Chemical Reagent Co. Ltd.
Sodium chloride injection, H32026305, was provided by Xuzhou No. 5 Pharmaceutical Factory Co. Ltd.
Instruments: self-made clambering cage, chronograph.
Procedures: apomorphine induced clambering assay of mice
After 5 min of adaptation, the behavior of the mice at 10-11, 20-21, and 30-31 min after the injection of apomorphine were observed and scored. Scoring criteria: the behavior of 4 paws on the floor was scored as 0; the behavior of 2 forepaws on the cage was scored as 1; and the behavior of 4 paws on the cage was scored as 2.

The next data set concerns the target Histamine H1 receptor (Rattus norvegicus, UniProt P31390). Put plainly: Histamine H1 receptor binding assay (3H-pyrilamine, rat cerebellum membrane). The note with it: read-out: H1 Inhibition rate (%).
Another data set is described as follows: in vivo. The note with it: both sexes, mouse, in vivo, po.
Another data set can be described thus: Catalepsy assay in mice. The settings on record: both sexes, Kunming, mouse, in vivo, po, bar test at 30, 60, 90 min. The protocol:
Healthy mice of Kunming breed (with half male and half female, (22±2) g) were provided by Qinglongshan Animal Cultivation Center, Nanjing.
Instruments: self-made bar-grabbing apparatus: stainless steel bar in mice box, which was 0.3 cm in diameter and […].
Corresponding solvent double-distilled water was administered intragastrically to the negative control group and the model group, corresponding positive drugs were administered intragastrically to the positive drug groups (a small amount of acetic acid was first added and then double-distilled water was added when dissolving), and corresponding dosages of compounds were administered intragastrically to the compound groups for each dosage, with the volume for intragastric administration as 0.1 ml/10 g. At 30 min, 60 min, 90 min after the intragastric administration, the two forepaws of the mice were gently placed on the bars (which were 20 cm in length, 0.3 cm in diameter, and 5.5 cm above the bench), and the hindpaws of the animals were placed on the bottom of the box. The durations of the mice to maintain the posture with the two forepaws on the bars were recorded, and 30 s of spasticity without moving was considered as the positive response. In the case the forepaws of the mice were not put down persistently, the observation was terminated at 60 s. The numbers of animals with positive response in each of the compound dosage groups were counted.

Another data set has as its system D2 receptor. The data set is described as follows: D2 receptor binding assay (3H-Spiperone, rat striatum membrane). The settings on record: test compound final concentration 10^−5 M; 3H-Spiperone; rat striatum membrane. The protocol:
Preparation of D2 Membrane
Rats were decapitated on ice. […] The weight of the homogenized tubes were adjusted using a balance, and centrifugation was conducted. […] Centrifugation was conducted.
as §1

The subject of data set [2] is α1 norepinephrine receptor. The data set is described as follows: α1 norepinephrine receptor binding assay (3H-prazosin, rat cortex membrane). The note with it: test compound final concentration 10^−5 M; 3H-prazosin; rat cortex membrane. The source says: Preparation of Receptor Membrane of Norepinephrine
α1 Norepinephrine Receptor Binding Assay

In a further data set the target is 5HT2A receptor (Rattus norvegicus, UniProt P14842). The data set is described as follows: 5HT2A receptor binding assay ([3H]-Ketanserin, rat striatum membrane). The note with it: read-out: 5HT2A Inhibition rate (%).
Sequence of 5HT2A receptor (P14842 whole entry): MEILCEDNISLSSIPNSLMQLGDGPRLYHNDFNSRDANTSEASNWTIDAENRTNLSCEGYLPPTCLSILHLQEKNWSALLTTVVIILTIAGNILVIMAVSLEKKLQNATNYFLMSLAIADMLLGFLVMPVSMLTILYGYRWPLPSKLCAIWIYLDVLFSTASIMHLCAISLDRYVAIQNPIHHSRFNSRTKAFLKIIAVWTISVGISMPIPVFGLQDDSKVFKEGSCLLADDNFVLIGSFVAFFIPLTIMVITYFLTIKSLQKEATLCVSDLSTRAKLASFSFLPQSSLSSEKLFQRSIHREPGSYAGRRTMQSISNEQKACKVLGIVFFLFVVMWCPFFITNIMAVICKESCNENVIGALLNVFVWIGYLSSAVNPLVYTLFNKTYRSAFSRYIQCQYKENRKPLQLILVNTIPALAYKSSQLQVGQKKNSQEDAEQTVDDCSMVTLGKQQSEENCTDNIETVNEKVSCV
In data set [3] the test system is mice of Kunming breed. The data set is described as follows: MK-801 induced high activity in mice. Type of data set: in vivo. The note with it: Mus musculus, 1.5 h, po, MK-801 0.1 mg/kg ip, spontaneous activities in 90 min. How it is done:
Example 54: MK-801 Induced High Activity—the In Vivo Anti-Schizophrenia Activity of the Compounds
Healthy mice of Kunming breed (with half male and half female, (20±2) g) were provided by Qinglongshan Animal Cultivation Center, Nanjing.
Ascorbic acid was provided by Sinopharm Chemical Reagent Co. Ltd.
MK-801 was produced by Sigma Company, USA; the formulation method: 0.1% vitamin C was used to formulate a 1 mg/ml solution.
Test positive drugs: haloperidol, clozapine, risperidone, olanzapine, aripiprazole, ziprasidone, quetiapine.
Tween 80, with the concentration of 10%.
Mice with qualified body weight were selected, and randomly divided into blank group, model group, positive control group (risperidone group) and drug group. […] 1 h after the administration, 0.1% concentration of ascorbic acid was intraperitoneally injected to the blank group at 0.1 ml/10 g; and the model group, the positive control group (30 min) and the drug group were intraperitoneally injected the MK-801 solution at 0.1 mg/kg. Subsequently, the spontaneous activities of the mice of each group in 90 min were measured.

The next data set deals with T2, D3 receptor (Homo sapiens, UniProt P35462).
T2 construct: expressed in transfected cells; host or cells: HEK-293
T2 sequence (P35462 whole entry): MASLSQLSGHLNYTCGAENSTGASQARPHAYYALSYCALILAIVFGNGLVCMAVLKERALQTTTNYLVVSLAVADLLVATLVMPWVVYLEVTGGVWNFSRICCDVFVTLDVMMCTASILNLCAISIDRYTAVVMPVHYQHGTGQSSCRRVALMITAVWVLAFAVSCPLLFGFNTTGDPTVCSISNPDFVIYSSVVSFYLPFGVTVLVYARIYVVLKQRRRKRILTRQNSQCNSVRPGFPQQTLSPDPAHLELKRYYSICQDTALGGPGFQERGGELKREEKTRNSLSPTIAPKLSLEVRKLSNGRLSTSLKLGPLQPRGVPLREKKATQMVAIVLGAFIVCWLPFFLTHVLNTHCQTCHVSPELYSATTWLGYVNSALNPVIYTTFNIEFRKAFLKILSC
The data set is described as follows: D3 receptor assay ([3H]-Spiperone, HEK-293 cells). Format: binding. The note with it: test compound final concentration 10 μmol/L; [3H]-Spiperone; HEK-293 cells; read-out: D3 Inhibition rate (%). How it is done: Then the cells were centrifuged at 1000 rpm for 5 min, the supernatant was discarded, and the cell pellets was collected and stored in a −20° C. fridge for reservation. It was re-suspended with Tris-Cl (pH 7.4) when the assay was performed.
Tris was divided into aliquots by Genetimes Technology Inc.
Competitive binding test for receptors: 20 μl of each of the test compounds and 20 μl of the radioactive ligand together with 160 μl of the receptor proteins were added into the reaction tubes, and the final concentrations of the test compound and the positive drug were all 10 μmol/L. After 50 min of incubation in 30° C. water bath, the tubes were immediately moved to ice bath to terminate the reactions. GF/C glass fiber filter papers were used for rapid sucking filtration on a Millipore cell sample collector, 3 ml of elution buffer (50 mM Tris-HCl, PH 7.4) was applied for 3 times, and microwave was applied for 4-5 min for drying. The filter paper was moved into 0.5 ml centrifuge tube, and 500 μl of liposoluble scintillation cocktail was added. The tubes were allowed to stand still for over 30 min in dark, and the intensities of radioactivity were measured by a counter.

The target in another data set is T3, 5HT1A receptor (Rattus norvegicus, UniProt P19327).
T3 construct: Rats were decapitated on ice; from tissue; host or cells: rat brain striatum
T3 sequence (P19327 1-422): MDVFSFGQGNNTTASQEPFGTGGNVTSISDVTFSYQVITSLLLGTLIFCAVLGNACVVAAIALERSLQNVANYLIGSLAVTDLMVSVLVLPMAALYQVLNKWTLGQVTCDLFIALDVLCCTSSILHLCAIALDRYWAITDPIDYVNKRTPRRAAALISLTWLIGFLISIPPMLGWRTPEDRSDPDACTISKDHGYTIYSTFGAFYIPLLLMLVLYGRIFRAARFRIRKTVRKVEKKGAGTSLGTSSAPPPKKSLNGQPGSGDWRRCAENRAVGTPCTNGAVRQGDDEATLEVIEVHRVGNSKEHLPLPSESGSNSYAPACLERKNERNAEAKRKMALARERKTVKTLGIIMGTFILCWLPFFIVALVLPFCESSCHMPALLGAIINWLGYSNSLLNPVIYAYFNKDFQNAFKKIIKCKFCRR
Put plainly: 5HT1A receptor binding assay (3H-8-OH-DPAT, rat striatum membrane). The settings on record: test compound final concentration 10^−5 M; 3H-8-OH-DPAT; rat striatum membrane; read-out: 5HT1A Inhibition rate (%). How it is done: Preparation of 5HT1A Membrane
Rats were decapitated on ice. […] Incubation at 37° C. was conducted for 10 min. […] Centrifugation was conducted at 12000 rpm, 4° C. for 20 min. […] Centrifugation was conducted and repeated 3 times.
as §1

Another data set has as its system KM mice. Put plainly: in vivo.
Setting [4] is: both, KM, mouse, in vivo, po, 7 days.
The mark [5] stands for this setting: single intragastric administration in mice.

Sequence of Histamine H1 receptor (P31390 whole entry): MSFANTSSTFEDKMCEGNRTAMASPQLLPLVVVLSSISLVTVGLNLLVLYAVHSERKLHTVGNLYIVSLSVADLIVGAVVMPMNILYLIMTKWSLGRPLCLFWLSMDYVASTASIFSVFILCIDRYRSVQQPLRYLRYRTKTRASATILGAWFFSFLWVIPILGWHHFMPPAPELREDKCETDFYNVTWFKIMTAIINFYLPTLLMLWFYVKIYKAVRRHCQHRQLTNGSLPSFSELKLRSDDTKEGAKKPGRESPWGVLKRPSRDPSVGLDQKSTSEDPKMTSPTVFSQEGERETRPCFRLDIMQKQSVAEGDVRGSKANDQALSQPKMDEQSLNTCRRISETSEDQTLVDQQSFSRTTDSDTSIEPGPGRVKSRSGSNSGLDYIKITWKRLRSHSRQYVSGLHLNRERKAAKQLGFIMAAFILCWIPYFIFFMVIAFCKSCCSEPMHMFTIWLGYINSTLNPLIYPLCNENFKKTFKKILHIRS
Description for Histamine H1 receptor: The supernatant was discarded to give pellets, and homogenate F was added again to the pellets for washing. Centrifugation was conducted and repeated 3 times.
(2) 100 μL of membrane preparation was added into each reaction tube.

Regarding `O=C1CCc2cc(CCCCN3CCC(c4noc5cc(F)ccc45)CC3)cc3c2N1CCC3` [Compound 7], the inhibition at 10 µM on 5HT2C receptor is 62.2%; on Histamine H1 receptor, 46.4%; on 5HT2A receptor, 99.4%; at D3 receptor it was 98.1%; on 5HT1A receptor, 99.2%. In addition, the figures for the ED50 with mice of Kunming breed [1], in “Catalepsy assay in mice” and in the data set with mice of Kunming breed [3] were 0.44 mg/kg, 24.1 mg/kg and 0.92 mg/kg, respectively. In addition, the LD50 at 7 days in the data set “in vivo” (single intragastric administration in mice, read-out: LD50 (po, mg/kg)) is above 2000 mg/kg. The “D2 Inhibition rate (%)” value with D2 receptor amounted to 94.32%. Also, the “α1 Inhibition rate (%)” value in [2] is on record as 63.69%.
In the case of `O=C(CCCN1CCC(c2noc3cc(F)ccc23)CC1)c1cc2c3c(c1)CCN3C(=O)CC2` [Compound 15], the inhibition at 10 µM on 5HT2C receptor turned out to be 52.7%; at Histamine H1 receptor, 34%; at 5HT2A receptor, 104%; at D3 receptor, 99.9%; at 5HT1A receptor, 103%. The ED50 in the data set with mice of Kunming breed [1] was found to be 0.12 mg/kg; in “Catalepsy assay in mice”, 50 mg/kg; in the data set on mice of Kunming breed [3], 0.21 mg/kg. The same molecule showed an LD50 at 7 days in the data set “in vivo” (KM) above 2000 mg/kg. Moreover, the “D2 Inhibition rate (%)” value in the data set on D2 receptor was 103.83%. Further, the “α1 Inhibition rate (%)” value in data set [2] stood at 43.69%.
As to `O=C1CCc2ccc(OCCCCN3CCN(c4cccc(Cl)c4Cl)CC3)cc2N1` [aripiprazole], the ED50 with mice of Kunming breed [1] is 0.66 mg/kg; with mice of Kunming breed [3], 0.12 mg/kg. Further, in the data set on KM mice (setting [4]), the “LD50 (po, mg/kg)” value is on record as 93 mg/kg.
On to `CN1CCN(C2=Nc3cc(Cl)ccc3Nc3ccccc32)CC1` [clozapine], for which the results for the ED50 in the data set with mice of Kunming breed [1] and with mice of Kunming breed [3] were 17.9 mg/kg and 2.28 mg/kg, respectively. Besides, in the data set with KM mice (setting [5]), the “LD50 (po, mg/kg)” value is 150 mg/kg.
Consider `O=C(CCCN1CCC(O)(c2ccc(Cl)cc2)CC1)c1ccc(F)cc1` [haloperidol], for which the ED50 is 0.1 mg/kg in the data set on mice of Kunming breed [1] and 7.42 mg/kg in the data set with mice of Kunming breed [3]. The “LD50 (po, mg/kg)” value in the data set on KM mice (setting [5]) is 20 mg/kg.
Take `OCCOCCN1CCN(C2=Nc3ccccc3Sc3ccccc32)CC1` [quetiapine]: the ED50 is 2.02 mg/kg in the data set with mice of Kunming breed [1] and 10.1 mg/kg with mice of Kunming breed [3]. Also, in the data set with KM mice (setting [4]), the “LD50 (po, mg/kg)” value is recorded as 800 mg/kg.
